The values that follow come from patent publication US8435976B2, “4-substituted pyridin-3-yl-carboxamide compounds and methods of use” (F. Hoffmann-La Roche, priority 2009, dated 2013).

Some results are limits rather than exact numbers.

One experiment deals with MM1.S cells. In words: MM1.S cell proliferation, 72 hours (Cell Titer Glo). Format: cell-based. Conditions: Homo sapiens, 72 hours, read-out: Prolif MM1S ATP (EC50). As to the method: (§1) BaF3 parental line was obtained from the DSMZ repository. BaF3 lines transfected with PIM1 or PIM2 were generated. Mouse IL-3 was purchased from R&D Systems. G418 was purchased from Clontech. Media for BaF3 parental line contained RPMI, 10% FBS, 2 mM L-Glutamine, 2 ng/mL mIL-3. Media for BaF3 PIM1 & 2 lines contained RPMI, 10% FBS, 2 mM L-Glutamine, […]. Media for MM1.S line contained RPMI, 10% FBS, 2 mM L-Glutamine.
(§2) BaF3 parental cells, BaF3 PIM1 cells, BaF3 PIM2 cells, and MM1.S cells were seeded at 2 k/well, 5 k/well, 5 k/well, and 10 k/well respectively, in a 384-well plate, at 45 μL/well. Test compound was added at 5 μL/well. BaF3 cells (parental and transfected) were incubated overnight, while MM1.S cells were incubated for 72 hours at 37° C., 5% CO2. Cell Titer Glo Reagent (Promega) was added at 50 μL/well, the plates were incubated for 30 minutes, and their luminescence read on an HT Analyst. IC50/EC50 values for the test compound were calculated.
A general note: ATP-based viability assays read luminescence as a measure of living cells.

In the next experiment the target is BaF3 PIM1 cells (Homo sapiens, UniProt P11309). Kind of experiment: BaF3 PIM1 cell proliferation (Cell Titer Glo). It counts as cell-based. To be noted: incubated overnight; read-out: Prolif BaF3_PIM1 (IC50). As to the method: as §1, §2
The next experiment concerns the target T1, PIM1 (Homo sapiens, UniProt P11309).
T1 construct: made in house
Kind of experiment: Pim-1 kinase enzymatic assay (Caliper LC3000, FAM-Pimtide substrate). Format: biochemical. To be noted: 20 pM PIM1, 10 μM ATP, 90 minutes; read-out: PIM1 LC3K (Ki). The method, then:
(§3) Reaction Buffer contained 10 mM HEPES, pH 7.2, 10 mM MgCl2, 0.01% Tween 20, 2 mM DTT.
(§4) PIM reactions were carried out in a final volume of 10 μL per well in a 384-well plate. […] The separation of product and substrate was optimized by choosing voltages and pressure using Caliper's Optimizer software (Hopkinton, Mass.). The separation conditions used a downstream voltage of −500V, an upstream voltage of −2150V, and a screening pressure of −1.2 psi. […] Substrate conversion was calculated from the electrophoregram using HTS Well Analyzer software (Caliper Life Sciences, Hopkinton, Mass.). Ki values for the test compound were calculated.

The target in the next experiment is T2, PIM2 (Homo sapiens, UniProt Q9P1W9).
T2 construct: made in house
In words: Pim-2 kinase enzymatic assay (Caliper LC3000, FAM-Pimtide substrate). Format: biochemical. To be noted: 50 pM PIM2, 10 μM ATP, 90 minutes; read-out: PIM2 LC3K (Ki). The method, then:
as §3, §4

The target in another experiment is T3, PIM3 (Homo sapiens, UniProt Q86V86).
T3 construct: made in house
Kind of experiment: Pim-3 kinase enzymatic assay (Caliper LC3000, FAM-Pimtide substrate). To be noted: 55 pM PIM3, 10 μM ATP, 90 minutes; read-out: PIM3 LC3K (Ki). Format: biochemical. As to the method: as §3, §4

T2 sequence (Q9P1W9 whole entry): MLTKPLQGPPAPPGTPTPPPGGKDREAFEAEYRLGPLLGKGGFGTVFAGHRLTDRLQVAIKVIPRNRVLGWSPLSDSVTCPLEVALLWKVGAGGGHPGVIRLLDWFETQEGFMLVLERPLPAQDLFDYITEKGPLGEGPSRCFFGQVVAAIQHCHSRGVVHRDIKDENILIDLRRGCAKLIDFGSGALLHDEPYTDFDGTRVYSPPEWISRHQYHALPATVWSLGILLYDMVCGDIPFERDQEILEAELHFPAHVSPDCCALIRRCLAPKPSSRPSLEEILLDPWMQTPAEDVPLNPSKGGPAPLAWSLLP
T1 sequence (P11309 whole entry): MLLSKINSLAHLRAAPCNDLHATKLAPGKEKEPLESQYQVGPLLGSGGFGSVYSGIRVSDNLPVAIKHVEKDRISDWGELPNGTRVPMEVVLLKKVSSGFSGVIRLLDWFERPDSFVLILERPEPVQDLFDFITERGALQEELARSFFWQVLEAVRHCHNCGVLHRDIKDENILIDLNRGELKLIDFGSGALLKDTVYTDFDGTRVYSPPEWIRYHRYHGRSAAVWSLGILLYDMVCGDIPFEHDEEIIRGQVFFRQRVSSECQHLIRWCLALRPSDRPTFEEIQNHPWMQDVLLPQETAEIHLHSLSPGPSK
Sequence of BaF3 PIM1 cells (P11309 whole entry, change not shown): as the sequence (P11309 whole entry) above

`N[C@H]1CCCN(c2ccncc2NC(=O)c2csc(-c3c(F)cccc3F)n2)C1` [Example 46, (S)-N-(4-(3-aminopiperidin-1-yl)pyridin-3-yl)-2-(2,6-difluorophenyl)thiazole-4-carboxamide]: the EC50 with MM1.S cells amounted to 4800 nM.

With `Nc1sc(-c2c(F)cccc2F)nc1C(=O)Nc1cnccc1N1CCC[C@H](N)C1` (single isomer, unassigned) [Example 25], the GI50 at BaF3 PIM1 cells is 1500 nM. In addition, in the experiment with MM1.S cells, the concentration for a half-maximal effect (EC50) was 1500 nM.

On to `Nc1sc(-c2ccccc2)nc1C(=O)Nc1cccnc1` [Example 14, 5-amino-2-phenyl-N-(pyridin-3-yl)thiazole-4-carboxamide], for which the figures for the inhibition constant (Ki) at PIM1, on PIM2 and at PIM3 were 36.7 nM, 195 nM and 9.25 nM, respectively. The concentration giving a half-maximal response (EC50) in the experiment with MM1.S cells is over 20000 nM.

On to `Nc1sc(Cc2ccccc2)nc1C(=O)Nc1cnccc1N1CCC[C@H](N)C1` [Example 38, (S)-5-amino-N-(4-(3-aminopiperidin-1-yl)pyridin-3-yl)-2-benzylthiazole-4-carboxamide], for which the inhibition constant (Ki) at PIM1 worked out at 3.73 nM; at PIM2 it was 33.8 nM; on PIM3, 12.7 nM. For the same molecule, the GI50 on BaF3 PIM1 cells stood at 3200 nM. Also, the EC50 with MM1.S cells was determined as 11900 nM.

With `Nc1sc(-c2cccc(Cl)c2)nc1C(=O)Nc1cnccc1N1CCC[C@H](N)C1` [Example 13, (S)-5-amino-N-(4-(3-aminopiperidin-1-yl)pyridin-3-yl)-2-(3-chlorophenyl)thiazole-4-carboxamide], the Ki came out at 0.102 nM on PIM1, 0.403 nM on PIM2 and 0.04 nM at PIM3. Further, the concentration giving a half-maximal response (EC50) in the experiment with MM1.S cells is over 20000 nM.

Turning to `Nc1sc(C2CCCCC2)nc1C(=O)Nc1cnccc1N1CCC[C@H](N)C1` [Example 37, (S)-5-amino-N-(4-(3-aminopiperidin-1-yl)pyridin-3-yl)-2-cyclohexylthiazole-4-carboxamide], the inhibition constant (Ki) at PIM1 is 1.14 nM; at PIM2, 0.635 nM. Further, the GI50 on BaF3 PIM1 cells came out at 2200 nM. Further, the EC50 with MM1.S cells is 2100 nM.

With `CC(C)c1nc(C(=O)Nc2cnccc2N2CCC[C@H](N)C2)c(N)s1` [Example 36, (S)-5-amino-N-(4-(3-aminopiperidin-1-yl)pyridin-3-yl)-2-isopropylthiazole-4-carboxamide], the inhibition constant (Ki) at PIM1 came to 2.18 nM; on PIM2, 8.69 nM; on PIM3, 3.77 nM. Also, the GI50 on BaF3 PIM1 cells is 562 nM. The EC50 in the experiment on MM1.S cells was found to be 14000 nM.

For `Nc1scnc1C(=O)Nc1cnccc1N1CCC[C@H](N)C1` [Example 10, (S)-5-amino-N-(4-(3-aminopiperidin-1-yl)pyridin-3-yl)thiazole-4-carboxamide], the inhibition constant (Ki) at PIM1 was found to be 36.7 nM; at PIM2, 51.2 nM; at PIM3 it was 24 nM. For the same molecule, the GI50 at BaF3 PIM1 cells came out at 3600 nM. For the same molecule, the concentration giving a half-maximal response (EC50) in the experiment with MM1.S cells is over 20000 nM.

Take `Nc1[nH]c(-c2ccccc2)nc1C(=O)Nc1cnccc1N1CCC[C@H](N)C1` [Example 20, (S)-5-amino-N-(4-(3-aminopiperidin-1-yl)pyridin-3-yl)-2-phenyl-1H-imidazole-4-carboxamide]: the figures for the Ki on PIM1, on PIM2 and on PIM3 were 1200 nM, 4900 nM and 496 nM, respectively.

On to `Nc1sc(C2CCNC2)nc1C(=O)Nc1cnccc1N1CCCC(N)C1` (stereo not shown) [Example 64, 5-amino-N-(4-(3-aminopiperidin-1-yl)pyridin-3-yl)-2-(pyrrolidin-3-yl)thiazole-4-carboxamide], for which the Ki on PIM1 was 21.6 nM; on PIM2, 57.7 nM; on PIM3 it was 18 nM.

In the case of `Nc1sc(-c2c(F)cccc2Cl)nc1C(=O)Nc1cnccc1N1CCC[C@H](N)C1` [Example 55, (S)-5-amino-N-(4-(3-aminopiperidin-1-yl)pyridin-3-yl)-2-(2-chloro-6-fluorophenyl)thiazole-4-carboxamide], the Ki at PIM1 was 0.032 nM; on PIM2 it was 0.12 nM; at PIM3, 0.028 nM. The half-maximal effective concentration (EC50) in the experiment on MM1.S cells is 158 nM.

One may read the EC50 as the midpoint of the concentration-response curve. Usually Ki stands for the equilibrium dissociation constant of an inhibitor or competing ligand from its target.
